Patent publication EP4663204A1, “COMPOUNDS USEFUL FOR THE MODULATION OF THE ACTIVITY OF STING” (Sulis Therapeutics ApS, priority 2024, dated 2025)
“Also recorded” adds a separate entry of the source.

Assays:
STING [1] = molecular target: T1, STING (Homo sapiens, UniProt Q86WV6); experiment: Western Blot analysis for STING degradation in H596, H1650 and HaCat cells; type: cell-based; conditions: 0.22 µM, 0.67 µM, 2 µM and 6 µM, 24h, Figure 4
Experimental: To assess STING degradation in H596 cells (ATCC, HTB-178) cells were seeded at a density of 100.000 cells/well in 24-well Nunclon Delta surface treated culture plate in RPMI-1640 growth medium (supplemented with 10% FBS, 1% Pen-strep). Cells were incubated over-night at 37°C 5% CO2 to allow adhesion. Next day growth medium was renewed and a 5x concentration of test compounds (2.5% DMSO) diluted in growth medium were added to the appropriate well. Final DMSO concentration was 0.5%. Cell culture plates were returned to the incubator for additional 24h. The same protocols were used to grow H1650 and HaCat cells except that cells were seeded at a density of 150,000 cells/well and 250,000 cells/well, respectively
Final test compound concentrations were 0.22 µM, 0.67 µM, 2 µM and 6 µM.
For cell lysis, western blotting and data analysis, the following methods were applied.
For cell lysing for Western Blot analysis cell culture plates were brought to ice, supernatant was removed by aspiration and cells washed 2x in ice-cold DPBS. […] Samples were either analysed directly or stored at -80°C until analysis.
For Western Blotting, total protein concentration in each lysate was determined using PIERCE Gold BCA Assay kit according to manufactures protocol. […]

[2] = molecular target: T2, constitutively active STING (comprising a N154S mutation) (Homo sapiens, UniProt Q86WV6, N154S); experiment: Western Blot analysis for STING degradation in SAVI patient primary fibroblast cells; type: cell-based; conditions: SAVI patient fibroblasts (N154S); 1 µM; 20 hours; Figure 7
T2 construct: primary fibroblast cells with constitutively active STING (comprising a N154S mutation), derived from SAVI patients; endogenous in cells; host or cells: SAVI patient primary fibroblasts
Experimental: (§1) For this study, STING degradation was assessed in primary fibroblast cells with constitutively active STING (comprising a N154S mutation), derived from SAVI patients, and compared to healthy donor primary fibroblast cells.
(§2) Cells were seeded at 50,000 cells/well and cultured under standard conditions for 24 hours. Media was replaced with test compound and incubated for 20 hours prior to analysis.
(§3) Cell culture medium was replaced with fresh medium containing 1 µM Example compound and incubated for 20 hours. For cell lysis and western blotting, the methods described above for HFF-1 cells were applied.

wild-type STING = molecular target: T3, wild-type STING (Homo sapiens, UniProt Q86WV6); experiment: Western Blot analysis for STING degradation in healthy donor primary fibroblast cells; type: cell-based; conditions: healthy donor fibroblasts; 1 µM; 20 hours; Figure 7
T3 construct: compared to healthy donor primary fibroblast cells; endogenous in cells; host or cells: healthy donor primary fibroblasts
Experimental: as §1, §2, §3

STING [3] = molecular target: T1, STING; experiment: Western Blot analysis for STING recovery following compound washout in HFF-1 cells; type: cell-based; set-up: To assess STING degradation and recovery in human foreskin fibroblasts HFF-1 cells; host or cells: HFF-1 human foreskin fibroblasts; conditions: 24 hours treatment, 48 hours after washout, Figure 6
Experimental: To assess STING degradation and recovery in human foreskin fibroblasts HFF-1 cells (ATCC, SCRC-1041) cells were seeded at a density of 60.000 cells/well in 24-well Nunclon Delta surface treated culture plate in DMEM growth medium (supplemented with 10% FBS, 1% Pen-strep). Cells were incubated over-night at 37°C 5% CO2 to allow adhesion. Next day growth medium was renewed and a 5x concentration of test compounds (2.5% DMSO) diluted in growth medium were added to the appropriate well. The final DMSO concentration were 0.5%. Cell culture plates were returned to the incubator for additional 24h.
Methods as described above for H596, H1650 and HaCat cells were applied for cell lysis and western blotting. Following 24 hours incubation with the test compounds, cell culture medium containing Example compound was removed, cells washed with fresh medium without Example compound, and incubated in fresh medium without Example compound for the indicated time.

[4] = tested on: CXCL10, IL-6, MCP-1 (CCL2), MIP-1α (CCL3) and IFN-γ; experiment: Serum cytokine and chemokine levels in mice, with or without LPS (V-Plex immunoassay); type: in vivo; conditions: compound followed by LPS 16 hours later
Experimental: A compound of the invention (Example compound 12; "Ex 12"), or a control S1-L-E compound (control Example compound 7; "Ex 7"), were administered to subjects following the in vivo protocol of Example 1. 16 hours after that administration, some subjects were administered lipopolysaccharide (LPS).
In subjects that received LPS alone, serum levels of CXCL10, IL-6, MCP-1 (CCL2) and MIP-1α (CCL3) were raised 100-1000 fold above the levels in control subjects that received vehicle alone. (In both cases, IFN-γ levels were below the 10 pg/mL threshold of detection.) In subjects that received the compound of the invention, followed by LPS 16 hours later, CXCL10, IL-6, MCP-1 (CCL2) and MIP-1α (CCL3) levels were a further ten-fold higher than the levels in subjects that received LPS alone (see Figure 2). […] IFN-γ levels were only detectable in subjects that had been administered the compound of the invention, with LPS treatment after 16 hours resulting in a further elevation in IFN-γ levels to a small extent. Quantification of cytokines and chemokines was performed on individual serum samples that were stored frozen (≤ -20 °C) after collection, using the electrochemiluminescence-based immunoassay and a custom mouse 5-plex panel according to the manufacturer's instructions (V-Plex assay, Mesoscale Discovery, USA).

[5] = Pharmacokinetic profiling in mouse; type: in vivo; conditions: plasma, sc, mice, subcutaneous injection (8 mg/kg stated for Example compound 12), 8 hours after injection
Experimental: Mice were administered with 8 mg/kg Example compound 12 by subcutaneous injection. Plasma concentration of test compound was measured over the course of 8 hours.

T1 sequence (Q86WV6 whole entry): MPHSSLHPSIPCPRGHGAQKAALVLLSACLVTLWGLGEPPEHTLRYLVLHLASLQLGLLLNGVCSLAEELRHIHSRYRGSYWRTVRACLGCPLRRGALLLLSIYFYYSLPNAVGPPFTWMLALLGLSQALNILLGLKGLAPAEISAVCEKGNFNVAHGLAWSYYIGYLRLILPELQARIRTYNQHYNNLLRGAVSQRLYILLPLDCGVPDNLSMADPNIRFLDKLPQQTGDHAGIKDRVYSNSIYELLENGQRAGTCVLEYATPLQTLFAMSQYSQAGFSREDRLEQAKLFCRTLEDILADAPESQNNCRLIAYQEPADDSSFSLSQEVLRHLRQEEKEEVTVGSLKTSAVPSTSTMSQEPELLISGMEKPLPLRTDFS
T3 sequence (Q86WV6 whole entry): as above
T2 sequence (Q86WV6 whole entry N154S): as the sequence (Q86WV6 whole entry) above, with N154S counted along it

STING degradation [2]	STING degradation (wild-type STING)	STING protein recovery after washout (STING [3])	concentration at 8 h [5] [nM]	Structure (SMILES)	STING degradation (STING [1])	CXCL10, IL-6, MCP-1 (CCL2) and MIP-1α (CCL3) levels relative to subjects that received LPS alone [4]
–	–	–	–	CCn1nc(C)cc1C(=O)N=c1n(C)c2cc(C(N)=O)ccc2n1CCC(CCn1c(=NC(=O)c2cc(C)nn2CC)n(C)c2cc(C(N)=O)ccc21)OCC(=O)NCCOCCOCCOCCOCCC(=O)NCCOCCOCCOCCOCC(=O)N[C@H](C(=O)N1C[C@H](O)C[C@H]1C(=O)NCc1ccc(-c2scnc2C)cc1)C(C)(C)C (stereo partly shown) [Example compound 6]	induction of STING degradation; also recorded: induces visible degradation in H1650 and H596 at higher concentrations	–
induce STING degradation	induce STING degradation	fail to recover to pre-treatment levels	~100	CCn1nc(C)cc1C(=O)N=c1n(C)c2cc(C(N)=O)ccc2n1CCC(CCn1c(=NC(=O)c2cc(C)nn2CC)n(C)c2cc(C(N)=O)ccc21)OCC(=O)NCCOCCOCCOCCOCCC(=O)NCCOCCOCCOCCOCCNc1cccc2c1C(=O)N(C1CCC(=O)NC1=O)C2=O (stereo not shown) [Example compound 7]	induction of STING degradation; also recorded: induce STING degradation in all cell lines tested at all concentrations tested	only further elevated to a small extent
